Source: article PMC4552634, “A New Set of Chemical Starting Points with Plasmodium falciparum Transmission-Blocking Potential for Antimalarial Drug Discovery” (PLoS ONE, 2015)
Where two headings read alike, the source gives them in different places.

How the values were obtained:
[1] = tested on: P. falciparum stage V gametocytes; experiment: Gametocytocidal ATP bioluminescence assay (single point 5 μM and 1 μM, dose-response); type: cell-based, Plasmodium falciparum; conditions: for Ratio IC50 HepG2/IC50 P. falciparum: IC50 HepG2 divided by IC50 P. falciparum gametocytes; for % Inhibition: 5 μM single concentration, 48 h, decrease of ATP level (S1 Table)
Method: Purified stage IV-V gametocytes were obtained as previously described [10]. Single point ATP bioluminescence assay and dose–response of positive hits was determined in accordance with the previously published protocol [10].

[2] = Cytotoxicity in HepG2 cells (intracellular ATP, ATPlite, 48 h); type: cell-based, human; conditions: human, HepG2 cells, IC50 per ratio column head, unit inferred; for IC50 at 48 h: read-out: Cytotoxicity in HepG2
[3] = tested on: P. falciparum asexual stages; conditions: asexual stages; TCAMS data; read-out: IC50 asexual; cited from earlier work
[4] = tested on: P. falciparum stage V gametocytes; experiment: microbe, parasite or virus in culture; set-up: BacTiter-Glo ATP luminescence viability of purified stage V gametocytes in 384-well plates, per cent inhibition versus DMSO; conditions: Plasmodium falciparum, 48 h, read-out: % Inhibition
HepG2 cells = experiment: Cytotoxicity in HepG2 cells (intracellular ATP, ATPlite, 48 h); type: cell-based, human; conditions: HepG2 cells; IC50 per ratio column head; unit inferred
[5] = Plasmodium falciparum, read-out: IC50 Pf Gametocytes average, IC50 (µM) average
[6] = sexual stages (gametocytes), dose-response, read-out: IC50 sexual
[7] = Plasmodium falciparum, P. falciparum gametocytes, average, read-out: IC50 Pf Gametocytes average, IC50 (µM) average
[8] = P. falciparum gametocytes, average, read-out: IC50 Pf Gametocytes average, IC50 (µM) average

SMILES | Ratio IC50 HepG2/IC50 P. falciparum [1] | IC50 [3] | IC50 [1, 7] | IC50 at 48 h [2] | inhibition at 5 µM [4] | other results
Cl.c1ccc2c(NCCCCCCCCCNc3c4ccccc4nc4ccccc34)c3ccccc3nc2c1 [TCMDC-124286] | 4 | 298 nM |  |  |  | IC50 [1, 5]: 1.5 µM; IC50 [1, 6]: 1.5 µM; IC50 [2]: 6100 nM
S=C(NN=Cc1ccccn1)Nc1ccc(Cl)c(Cl)c1 [TCMDC-125522] | 130 | 768 nM | 0.07 µM | 9100 nM |  | 
S=C(NN=Cc1ccccn1)NC1CC2C=CC1C2 (stereo not shown) [TCMDC-125752] | 6 | 721 nM | 0.11 µM | 700 nM |  | IC50 [1, 6]: 0.112 µM
COc1cc2nc(NCCCN3CCCCC3)nc(NCc3ccccc3)c2cc1OC [TCMDC-132012] | 30 | 998 nM | 0.3 µM | 8940 nM |  | IC50 [1, 6]: 0.297 µM
COc1ccc(CCNc2nc(NCc3ccccc3)c3cc(OC)c(OC)cc3n2)cc1OC [TCMDC-132017] | 0.818 | 326 nM | 5.6 µM | 4580 nM |  | 
FC(F)(F)c1ccc2[nH]c(-c3ccc(-c4ccc(CNCCN5CCNCC5)cc4)s3)nc2c1 [TCMDC-132862] | 5.37 | 910 nM |  | 6900 nM |  | IC50 [1, 5]: 1.29 µM; IC50 ([1]; Plasmodium falciparum, read-out: IC50 sexual): 1.28 µM; %_Inh ([1]; gametocytes, primary screen at 5 μM (S10 Table, MCSI analogs)): 105.547%
CC(C)c1ccc(CN2CCC(CNC(=O)c3cc(-c4cccc(F)c4)cs3)C2)cc1 (stereo not shown) [TCMDC-134437] | 12 | 1660 nM | 0.45 µM | 5300 nM |  | IC50 [1, 6]: 0.455 µM
CC(C)(C)c1ccc(CN2CCC(CNC(=O)c3cc(-c4ccccc4C(F)(F)F)cs3)C2)cc1 (stereo not shown) [TCMDC-134441] | 21 | 1240 nM | 0.31 µM | 6400 nM |  | IC50 [1, 6]: 0.305 µM
CC(C)(C)c1ccc(CN2CCC(CNC(=O)c3cc(-c4cccc(C(F)(F)F)c4)cs3)C2)cc1 (stereo not shown) [TCMDC-134442] | 12 | 1030 nM | 0.42 µM | 4900 nM |  | 
CC(C)(C)c1ccc(CN2CCC(CNC(=O)c3cc(-c4ccccc4F)cs3)C2)cc1 (stereo not shown) [TCMDC-134443] | 22 | 564 nM | 0.34 µM | 7400 nM |  | 
CC(C)(C)c1ccc(CN2CCC(CNC(=O)c3cc(-c4ccccc4Cl)cs3)C2)cc1 (stereo not shown) [TCMDC-134445] | 12 | 856 nM | 0.69 µM | 8300 nM |  | 
COc1cccc(-c2csc(C(=O)NCC3CCN(Cc4ccc(C(C)(C)C)cc4)C3)c2)c1 (stereo not shown) [TCMDC-134447] | 41 | 1180 nM | 0.23 µM | 9500 nM |  | 
Cl.c1ccc2c(Nc3ccc(Cc4ccc(Nc5c6ccccc6nc6ccccc56)cc4)cc3)c3ccccc3nc2c1 [TCMDC-137354] | 2 | 162 nM | 2.3 µM | 4490 nM |  | 
N=C(NCCCCC1CCCCC1)c1cccc(C(=N)NCCCCC2CCCCC2)n1 [TCMDC-137452] | 7 | 395 nM | 0.22 µM | 1600 nM |  | 
CC(CNC(=N)c1cccc(C(=N)NCC(C)Oc2cccc(C3CCCCC3)c2)n1)Oc1cccc(C2CCCCC2)c1.Cl (stereo not shown) [TCMDC-137455] | 15 | 917 nM | 0.24 µM | 3530 nM |  | 
COc1ccc2nc3cc(Cl)ccc3c(NCCCCN3CCNCC3)c2c1 [TCMDC-137578] | 7.58 | 183 nM | 0.66 µM | 5000 nM |  | 
COc1ccc2c(c1)CC(C)(C)NC2CCCCCCCCC1NC(C)(C)Cc2cc(OC)ccc21 (stereo not shown) [TCMDC-137935] | 7 | 1300 nM | 0.79 µM | 5320 nM |  | 
c1ccc(CN2CCN(CCCCNc3c4ccccc4nc4ccccc34)CC2)cc1 [TCMDC-138009] | 12 | 117 nM | 0.79 µM | 9920 nM |  | IC50 [1, 6]: 0.795 µM
COc1ccc2c(NN=CC=Cc3ccccc3)cc(C)nc2c1 [TCMDC-142096] |  |  |  |  | 34% | % Inhibition ([1]; P. falciparum gametocytes): 34%
Fc1ccc2c(NN=Cc3ccc(Cl)cc3)ccnc2c1 [TCMDC-142097] |  |  |  |  | 61.1% | % Inhibition ([1]; P. falciparum gametocytes): 61%
O=[N+]([O-])c1cccc(/C=N/Nc2ccnc3cc(F)ccc23)c1 [TCMDC-142098] |  |  |  |  | 42.1% | % Inhibition ([1]; P. falciparum gametocytes): 42%
Clc1ccc(C=NNc2ccnc3ccccc23)cc1 [TCMDC-142099] |  |  |  |  | -69.1% | % Inhibition ([1]; P. falciparum gametocytes): -69%
Fc1ccc2c(NN=Cc3ccccc3)ccnc2c1 [TCMDC-142100] |  |  |  |  | 16.3% | % Inhibition ([1]; P. falciparum gametocytes): 16%

SMILES | Ratio IC50 HepG2/IC50 P. falciparum [1] | IC50 [3] | IC50 [1, 7] | IC50 at 48 h [2] | inhibition at 5 µM [4] | other results
Nc1c(I)cc(C(=O)Nc2ccc3nc4c(c(N)c3c2)CCCC4)cc1I [TCMDC-142289] | 20 | 143 nM |  |  | 108% | IC50 [1, 8]: 0.41 µM; IC50 (HepG2 cells): 8030 nM
Nc1cc(/C=C/c2ccc([N+](=O)[O-])s2)nc2ccccc12 [TCMDC-142296] | 13 | 760 nM |  |  | 111% | IC50 [1, 8]: 0.6 µM; IC50 [1, 6]: 0.595 µM; IC50 (HepG2 cells): 7600 nM
Cc1ccccc1Nc1nc(NCCc2ccccc2)nc2ccccc12 [TCMDC-142322] |  |  |  |  | 101% | 
CCCC(=O)c1cnc2cc(O)ccc2c1Nc1ccccc1C [TCMDC-142323] |  |  |  |  | -12.6% | 
Cc1ccccc1Nc1nc(Nc2ccccc2)c2ccccc2n1 [TCMDC-142324] |  |  |  |  | 28.6% | 
CNc1nc(Nc2ccccc2C)nc2ccccc12 [TCMDC-142325] |  |  |  |  | 50.8% | 
CCCNc1nc(Nc2ccccc2C)nc2ccccc12 [TCMDC-142326] |  |  |  |  | 78.9% | 
Cc1ccccc1Nc1nc(NCCCO)c2ccccc2n1 [TCMDC-142327] |  |  |  |  | 41.9% | 
CCCCCNc1nc(Nc2ccccc2C)nc2ccccc12 [TCMDC-142328] |  |  |  |  | 26.7% | 
CCCC(=O)c1cnc2c(Oc3cc(Cl)ncn3)cccc2c1Nc1ccccc1C [TCMDC-142329] |  |  |  |  | -26% | 
COc1ccccc1CNc1nc(Nc2ccccc2C)nc2ccccc12 [TCMDC-142330] |  |  |  |  | 93.6% | 
Cc1cc(F)ccc1Nc1nc(N(C)c2ccccc2)c2cccc(O)c2n1 [TCMDC-142331] |  |  |  |  | -52.7% | 
Cc1cc(F)ccc1Nc1nc(N(C)c2ccccc2)c2cc(OCCCN(C)C)ccc2n1 [TCMDC-142332] |  |  |  |  | 57.7% | 
Cc1cc(F)ccc1Nc1nc(N(C)c2ccccc2)c2cc(OCCN(C)C)ccc2n1 [TCMDC-142333] |  |  |  |  | 31.3% | 
Cc1cc(F)ccc1Nc1nc(N(C)c2ccccc2)c2cccc(OCCO)c2n1 [TCMDC-142334] |  |  |  |  | 32.7% | 
NC(=NCc1ccccc1)Nc1nc(-c2ccc(OCCCn3ccnc3)cc2)cs1 [TCMDC-142335] |  |  |  |  | 8.33% | 
CCCCOP(=O)(OCCCC)C(=Cc1ccc(O)c2ccccc12)P(=O)(OCCCC)OCCCC [TCMDC-142336] |  |  |  |  | -25.7% | 
Cc1ccccc1Nc1cc(Nc2ccccc2C)c2ccccc2n1 [TCMDC-142337] |  |  |  |  | 98.8% | 
CCCC(=O)c1cnc2c(OCCCc3c[nH]cn3)cccc2c1Nc1c(C)cccc1C [TCMDC-142338] |  |  |  |  | 28.2% | 
CN(C)CCCOc1ccc(-c2csc(NC(N)=NCc3ccccc3)n2)cc1 [TCMDC-142339] |  |  |  |  | 35.3% | 
N[C@@H](Cc1cc(I)c(Oc2ccc(O)c(C(=O)O)c2)c(I)c1)C(=O)O [TCMDC-142341] |  |  |  |  | 5.53% | 
CCCCCCc1cc(Oc2c(I)cc(C[C@H](N)C(=O)O)cc2I)ccc1O [TCMDC-142342] |  |  |  |  | 5.11% | 
